This is an account of results in patent publication US5231107A, “Derivatives of the oxime of 1,2,5,6-tetrahydropyridine 3-carboxaldehyde, the process for their preparation, their use as medicaments and the compositions containing them” (priority 1987, dated 1993).

Where two headings read alike, the source gives them in different places.

Data set [1] can be described thus: Variation of the body temperature (duration of action). In kind it is in vivo, male mice (CD1 Charles Rivers). Here is the method: (§1) The test is carried out on male mice (CD1 Charles Rivers) weighing 25-30 g, which have fasted for 6 hours.
The temperature of the body is noted by means of a thermocouple inserted about 1.5 cm in the rectum and connected to an electric temperature recorder. […]
The duration of action of the products is determined, using the doses able to reduce the temperature by 1° to 1.5° C.

The nature of data set [2]: in vivo. The note with it: mouse, po. Here is the method: The test was carried out on male mice (CD1 Charles Rivers), of 22 to 24 g, without food for 16 hours. […] The mortality is noted during the 7 days following the treatment.
For data set [3], the system named is ileum isolated from guinea-pig. As to the kind of experiment: Test of ileum isolated from guinea-pig. Particulars: Cavia porcellus, agonist activity, Tyrode solution, 37° C., read-out: pD2 (negative logarithm of the dose which produces 50% of the maximum effect) (converted). Here is the method:
Pieces of ileum are removed from guinea-pigs killed by decapitation. The isolated ileum is placed in 10 cm^3 of Tyrode solution at 37° C. and aerated with a mixture of oxygen (95%) and carbon dioxide gas (5%). The contractions due to the products are registered by means of a detector connected to a polygraph. […].
The possible antagonist activity of the products is tested vis-a-vis acetylcholine.
The agonist activity is expressed in pD2 (negative logarithm of the dose which produces 50% of the maximum effect).
The antagonist activity is expressed in DE50 (dose reducing by 50% the maximum response induced by acetylcholine).

Data set [4] is described as follows: in vivo. The note with it: mouse, in vivo; oral route; male CD1 mice; method of Miller and Tainter; read-out: DE50 (dose which causes diarrhoea in 50% of the animals). Details: species or system male mice (CD1 Charles Rivers). On the procedure:
The test is carried out on male mice (CD1 Charles Rivers) weighing 25 to 30 g, which have fasted for 6 hours. The product dissolved at 5% in methocel is administered by oral route by means of an oesophage probe.
Control animals receive only the excipient.
After treatment, the animals are placed separately in cages of which the base is covered with blotting paper, and they are put under observation for 30, 60, 120 and 180 minutes.
The sheets of absorbent paper are changed after each observation.
The consistency of the feces is evaluated according to the method of Randall and Baruth (Arch. Int. Pharmacodyn. 220, 94, 1976) according to the following scale of values.
1: feces slightly soft, with or without a damp halo,
2: feces slightly soft, with a well-defined circle of humidity,
3: feces soft with a large circle of humidity,
4: feces without consistency with a very large circle of humidity.
For each product, the dose is noted which causes diarrhoea in 50% of the animals according to the method of Miller and Tainter (Proc. Soc. Exp. Biol. Med., 57, 261, 1944).

The nature of a further data set: Hypothermic activity. In kind it is in vivo, male mice (CD1 Charles Rivers). Particulars: Mus musculus, read-out: Effective dose (-1° C.). On the procedure: as §1
The temperature of the body is noted by means of a thermocouple inserted about 1.5 cm in the rectum and connected to an electric temperature recorder.
The products are administered by oral or sub-cutaneous route and the temperatures are noted at the instant 0 and at 30 minutes, 1 hour, 2 hours and 2-and-a-half hours after treatment.
The degree of hypothermia is evaluated as the difference between the treated animals and the controls, and the dose necessary to reduce the body temperature by 1° C. is noted.

Turning to `COC(=O)C1=CCCN(C)C1` [Arecoline HBr, reference compound], the “Variations of the body temperature” value in data set [1] (3.5 mg/kg sc, 0 min) was -0.1 °C; in data set [1] (3.5 mg/kg sc, 30 min), -1.5 °C; in data set [1] (3.5 mg/kg sc, 60 min), -0.1 °C; in data set [1] (3.5 mg/kg sc, 120 min), “+0.2 °C”; in data set [1] (3.5 mg/kg sc, 180 min), “+0.2 °C”; in data set [1] (200 mg/kg os, 0 min), “+0.1 °C”. The “Variations of the body temperature” value in data set [1] (200 mg/kg os, 30 min) was -1.1 °C; in data set [1] (200 mg/kg os, 60 min) it was -1.0 °C; in data set [1] (200 mg/kg os, 120 min) it was -0.2 °C; in data set [1] (200 mg/kg os, 180 min), -0.1 °C.
Compound `CCOC(=O)N1CCC=C(C=NOC)C1` [Example 2, Methyl ether of 1-ethoxycarbonyl-1,2,5,6-tetrahydropyridin-3-carboxaldehydeoxime] gave a 50% lethal dose (LD50) at 168 h in the data set “in vivo [2]” of 175 mg/kg. The EC50 in data set [3] was 33.9 µM. Further, in “in vivo [4]”, the ED50 turned out to be 25 mg/kg. Besides, the results for the ED (-1 C) in the data set “Hypothermic activity” (oral route (O.R.)) and in the data set “Hypothermic activity” (sub-cutaneous route (SC.R)) were 3.9 mg/kg and 3.6 mg/kg, respectively. Besides, the “Variations of the body temperature” value in data set [1] (5. mg/kg os, 0 min) was “+0.2 °C”; in data set [1] (5. mg/kg os, 30 min) it was -1.2 °C; in data set [1] (5. mg/kg os, 60 min), -1.1 °C; in data set [1] (5. mg/kg os, 120 min) it was -0.1 °C; in data set [1] (5. mg/kg sc, 0 min), “+0.2 °C”; in data set [1] (5. mg/kg sc, 30 min), -1.5 °C. Besides, the “Variations of the body temperature” value in data set [1] (5. mg/kg sc, 60 min) was -1.4 °C; in data set [1] (5. mg/kg sc, 120 min) it was -0.1 °C.
In the data set “in vivo [2]”, `CON=CC1=CCCN(C(=O)Oc2ccc(Br)cc2)C1` [Example 19, 1-(4-bromophenyloxycarbonyl)-1,2,5,6-tetrahydropyridine-3-carboxaldehyde-O-methyloxime] showed a median lethal dose (LD50) at 168 h greater than 1000 mg/kg. The EC50 in data set [3] was greater than 100 µM. Besides, in the data set “in vivo [4]”, the ED50 was greater than 50 mg/kg. Besides, the figures for the ED (-1 C) in the data set “Hypothermic activity” (oral route (O.R.)) and in the data set “Hypothermic activity” (sub-cutaneous route (SC.R)) were 1.7 mg/kg and 1.3 mg/kg, respectively.
In the same order, the values of `CON=CC1=CCCN(C(=O)Oc2ccc(F)cc2)C1` [Example 20, 1(4-fluorophenyloxycarbonyl)-1,2,5,6-tetrahydropyridine-3-carboxaldehyde-O-methyloxime] are 500 mg/kg, greater than 100 µM, greater than 50 mg/kg, 3.2 mg/kg and 1.5 mg/kg.
Compound `CON=CC1=CCCN(C(=O)Oc2ccc(C)cc2)C1` [Example 21, 1-(4-methylphenyloxycarbonyl)-1,2,5,6-tetrahydropyridine-3-carboxaldehyde-O-methyloxime] displayed a median lethal dose (LD50) at 168 h in the data set “in vivo [2]” of 250 mg/kg. For the same compound, the EC50 in data set [3] was greater than 100 µM. In “in vivo [4]”, the ED50 was greater than 50 mg/kg. Moreover, the ED (-1 C) in the data set “Hypothermic activity” (oral route (O.R.)) was determined as 1.5 mg/kg; in the data set “Hypothermic activity” (sub-cutaneous route (SC.R)) it was 1.2 mg/kg.
For `CON=CC1=CCCN(C(=O)Oc2ccc(C(C)(C)CC(C)(C)C)cc2)C1` [Example 22, 1-[4-(1,1,3,3-tetramethylbutyl)phenyloxycarbonyl]-1,2,5,6-tetrahydropyridine-3-carboxaldehyde-O-methyloxime] the same measures were 500 mg/kg, 100 µM, greater than 50 mg/kg, 7 mg/kg and 15 mg/kg.

By LD50 is commonly meant the dose at which mortality reaches 50%.
